Data reported in patent US6294526A, “Use of flavone derivatives for induction of β-lactam-sensitivity of MRSA” (priority 1998, dated 2001).
In brackets after ≈: the same amount, converted by molar mass. Where two headings read alike, the source gives them in different places.

How the values were obtained:
[1] = system: MRSA; assay: antibacterial activity of antibiotics alone and in the presence of apigenin (4 μg/ml), MRSA; type: cell-based, methicillin-resistant Staphylococcus aureus; settings: for MIC50 / MIC: MRSA
Description: The screening of the present invention may be carried out according to the agar plate dilution method designated by the Japan Society of Chemotherapy (Chemotherapy 29(1), 76-79 (1981)). Mueller-Hinton agar base semi-synthetic medium may be used for a plate culture medium for a sensitivity test together with an inoculating bacteria solution which may be prepared by culturing bacteria to be tested at 37° C. for 20 hours diluted with 8.5% by isotonic sodium chloride solution to 10^6 CFU/ml. Diluted β-lactam solutions are prepared by two times serial dilution. 1 ml of the diluted β-lactam solution and 1 ml of a predetermined concentration of a sample to be tested are added to 8 ml of the plate culture medium for a sensitivity test. To the resultant plate culture medium for sensitivity test, the bacteria are inoculated using a microplanter (SAKUMASEISAKUSYO Co.), cultured for 20 hours at 37° C. followed by assessing for a minimum inhibition concentration (MIC).
(D) Then use of 4 μg/ml of apigenin and other antibiotics at the same time was studied. The antibiotics are penicillin , ampicillin, cephalothin, cefoxitin, cefuroxime, cefotaxime, vancomycin, streptomycin, chloramphenicol, kanamycin, erythromycin, nalixic acid and tetracycline.

[2] = system: MRSA No. 5; assay: effect of flavone on antibacterial activity of antibiotics against MRSA No. 5 in bouillon (broth microdilution); type: cell-based, methicillin-resistant Staphylococcus aureus; settings: for MIC: Staphylococcus aureus, MRSA, 20 h; for inhibitory effect on resistance of MRSA No.5 (in words): in the presence of flavone 0.5 mM
Description: Alternatively, the screening of the present invention may be carried out according to the broth microdilution method designated by the Japan Society of Chemotherapy (Chemotherapy 38(1), 102-105 (1990)). Muellar-Hinton broth is used as a culture medium for the sensitivity test, and 50 mg/ml of calcium(Ca) ion, 25 mg/ml of magnesium(Mg) ion, and 2% sodium chloride (NaCl) are added thereto. An inoculating bacteria solution may be prepared by culturing bacteria to be tested in Mueller-Hinton broth at 37° C. for 20 hours and diluting with Mueller-Hinton broth to 10^5 CFU/ml final concentration of inoculating bacteria. Diluted β-lactam solution is prepared by two times serial dilution series. 10 μl of the diluted β-lactam solution and 10 μl of a predetermined concentration of a sample of bacteria to be tested are added to mix with 80 μl of the culture medium for the sensitivity test. To the resultant plate culture medium for sensitivity test, the inoculating bacteria are added and culturing is carried out for 20 hours at 37° C. and then assessment for a minimum inhibition concentration (MIC) is carried out. A minimum inhibition concentration means the minimum concentration of β-lactam at which growth of bacteria is not recognized by the naked eye.
(G) Antibacterial activity of 6 β-lactams, that is, cephalothin, cefuroxime, cefotaxime, cefoxitin, streptomycin and vancomycin, against MRSA in the presence of 0.5 mM flavone was studied in bouillon.
Muellar-Hinton broth was used as a culture medium for the sensitivity test, and 50 mg/ml of calcium (Ca) ion, 25 mg/ml of maqnesium (Mg) ion, 2% sodium chloride (NaCl) were added thereto. An inoculating bacteria solution was prepared by culturing bacteria to be tested with Mueller-Hinton broth at 37° C. for 20 hours and diluting with Mueller-Hinton broth to 10^5 CFU/ml final concentration of inoculating bacteria. Diluted β-lactam solutions were prepared in two times serial dilutions starting from 10 mM. Ten microliters of the diluted β-lactam solution and 10 μl of 5 mM of flavone were mixed with 80 μl of the culture medium for the sensitivity test in a microplate having U-shaped wells and samples of bacteria to be tested were added thereto. The mixture was cultured 20 hours at 37° C. and then assessed for minimum inhibition concentration (MIC). Minimum inhibition concentration means minimum concentration of a β-lactum at which growth of bacteria is inhibited to the extent that bacteria is not recognized by the naked eye.

[3] = Staphylococcus aureus, 20 h, Antibiotics alone, read-out: MIC50
[4] = Staphylococcus aureus, 20 h, antibiotic with Apigenin (4 μg/ml), read-out: MIC50
[5] = Concentration of flavone 0 mM, read-out: MIC
[6] = Concentration of flavone 0.5 mM, read-out: MIC
[7] = Staphylococcus aureus, 20 h, Antibiotics alone
[8] = Staphylococcus aureus, 20 h, antibiotic with Apigenin (4 μg/ml)
[9] = Concentration of flavone 0.5 mM

Compound | MIC50 [1, 3] | MIC50 [1, 4] | MIC [2, 5] | MIC [2, 6] | inhibitory effect on resistance of MRSA No.5 (in words) [2] | MIC ([1]; Staphylococcus aureus, 20 h, antibiotic with Apigenin (4 μg/ml), read-out: MIC) | inhibition of β-lactam resistant MRSA / improvement of antibacterial effect with apigenin (in words) ([1]; apigenin 4 μg/ml or less than its MIC) | MIC [1, 7] | MIC50 [1, 7] | MIC [1, 8] | MIC50 [1, 8] | MIC ([2]; Concentration of flavone 0 mM) | MIC [2, 9] | MIC ([1]; Antibiotics alone)
CO/N=C(\C(=O)N[C@@H]1C(=O)N2C(C(=O)O)=C(COC(C)=O)CS[C@H]12)c1csc(N)n1 [Cefotaxime, cefotaxime] | > 250 µg/mL | > 250 µg/mL | 1000 µM (≈ 455 µg/mL) | 7.8 µM (≈ 3.55 µg/mL) | showed inhibitory effect on resistance of MRSA No.5 | – | – | – | – | – | – | – | – | –
CO[C@@]1(NC(=O)Cc2cccs2)C(=O)N2C(C(=O)O)=C(COC(N)=O)CS[C@@H]21 [Cefoxitin, cefoxitin] | 250 µg/mL | 31.3 µg/mL | 1000 µM (≈ 427 µg/mL) | < 0.98 µM | showed the inhibitory effect remarkably | 2 to 125 µg/mL | inhibited β-lactam resistant MRSA | – | – | – | – | – | – | –
CO/N=C(\C(=O)N[C@@H]1C(=O)N2C(C(=O)O)=C(COC(N)=O)CS[C@H]12)c1ccco1 [Cefuroxime, cefuroxime] | > 250 µg/mL | > 250 µg/mL | > 1000 µM | 7.8 µM (≈ 3.31 µg/mL) | showed inhibitory effect on resistance of MRSA No.5 | – | – | – | – | – | – | – | – | –
CC(=O)OCC1=C(C(=O)O)N2C(=O)[C@@H](NC(=O)Cc3cccs3)[C@H]2SC1 [Cephalothin, cephalothin] | – | – | – | – | showed inhibitory effect on resistance of MRSA No.5 | – | – | 0.98 to 250 µg/mL | 125 µg/mL | 0.98 to 250 µg/mL | 125 µg/mL | 500 µM (≈ 198 µg/mL) | 1.95 µM (≈ 0.773 µg/mL) | –
Cc1onc(-c2ccccc2)c1C(=O)N[C@@H]1C(=O)N2[C@@H]1SC(C)(C)[C@@H]2C(=O)O [Oxacillin, oxacillin] | – | – | – | – | – | – | – | – | 250 µg/mL | – | 250 µg/mL | 1000 µM (≈ 401 µg/mL) | 15.6 µM (≈ 6.26 µg/mL) | –
[H]/N=C(/N)N[C@H]1[C@H](O)[C@@H](O)[C@H](O[C@@H]2O[C@@H](C)[C@](O)(C=O)[C@H]2O[C@@H]2O[C@@H](CO)[C@H](O)[C@@H](O)[C@@H]2NC)[C@@H](N/C(N)=N\[H])[C@@H]1O [Streptomycin, streptomycin] | – | – | – | – | appeared not to be showed | – | – | 7.8 to 15.6 µg/mL | 7.8 µg/mL | 2 to 15.6 µg/mL | 7.6 µg/mL | – | < 0.98 µM | –
CN(C)C1C(=O)C(C(N)=O)=C(O)C2(O)C(=O)C3=C(O)c4c(O)cccc4C(C)(O)C3CC12 (centres unmarked) [Tetracycline, tetracycline] | – | – | – | – | – | – | – | – | 0.98 µg/mL | 0.49 to 250 µg/mL | 0.98 µg/mL | – | – | 0.24 to 250 µg/mL
CN[C@H](CC(C)C)C(=O)N[C@H]1C(=O)N[C@@H](CC(N)=O)C(=O)N[C@H]2C(=O)N[C@H]3C(=O)N[C@H](C(=O)N[C@H](C(=O)O)c4cc(O)cc(O)c4-c4cc3ccc4O)[C@H](O)c3ccc(c(Cl)c3)Oc3cc2cc(c3O[C@@H]2O[C@H](CO)[C@@H](O)[C@H](O)[C@H]2O[C@H]2C[C@](C)(N)[C@H](O)[C@H](C)O2)Oc2ccc(cc2Cl)[C@H]1O [Vancomycin, vancomycin] | – | – | – | – | appeared not to be showed | – | – | 0.98 to 2 µg/mL | 0.98 µg/mL | 0.49 to 0.98 µg/mL | 0.49 µg/mL | – | < 0.98 µM | –
